Measured values taken from patent US20230330060A1, “COMPOUNDS FOR TREATMENT OF HEART FAILURE” (Sulfateq B.V., priority 2020, published 2023).

How the values were obtained:
[1] = test system: doxorubicin-induced heart failure; assay: Cardiac ATP/ADP ratio (HPLC); format: in vivo, rat; settings: doxorubicin rats; prophylactic or therapeutic administration of SUL-150
Procedure: SUL-150 (250 mg) was dissolved in 100% EtOH (1.02 ml) and further diluted in distilled water (68.7 ml) to obtain a clear 10 mM solution. The SUL-150 solution was sprayed homogeneously over standard food pellets (1.25 kg). Food pellets were air-dried overnight. Food pellets were freshly prepared weekly. With the approximation of 200 mg·kg^−1 SUL-150 in the food pellets and a daily dietary intake of 25 gram for a 350 gram rat, daily dosing of SUL-150 approximates 5 mg·day^−1.
Male outbred Wistar rats of 250-300 grams (10-12 weeks old) were kept on a 12 h light/dark cycle and received a standard diet with distilled water ad libitum. Thirty rats were administered with doxorubicin (2 mg·kg^−1) weekly via intraperitoneal injection for 9 consecutive weeks and were left either untreated (standard chow diet, 10 rats), or received a diet supplemented with SUL-150 as prophylaxis (prior to the 1st doxorubicin administration, 10 rats) or therapy (starting after the 6th doxorubicin administration, 10 rats). […]
Cardiac tissue samples were homogenized in Tris-saturated phenol (pH 7.4) using a TissueRuptor II (Qiagen, Hilden, Germany) to extract adenosines and separated over chloroform:water (1:1 v/v) by centrifugation. […] The eluted nucleotides were detected at a wavelength of 260 nm. Nucleotide concentration of the eluate was calculated using calibration curves for each standard nucleotide peak area. […]

[2] = test system: doxorubicin-induced heart failure; assay: Cardiac radical scavenging activity (ABTS-radical decolorization); format: in vivo, rat; settings: doxorubicin rats; prophylactic or therapeutic administration of SUL-150
Procedure: The SUL-150 solution was sprayed homogeneously over standard food pellets (1.25 kg). […] Food pellets were freshly prepared weekly. With the approximation of 200 mg·kg^−1 SUL-150 in the food pellets and a daily dietary intake of 25 gram for a 350 gram rat, daily dosing of SUL-150 approximates 5 mg·day^−1. Male outbred Wistar rats of 250-300 grams (10-12 weeks old) were kept on a 12 h light/dark cycle and received a standard diet with distilled water ad libitum. Thirty rats were administered with doxorubicin (2 mg·kg^−1) weekly via intraperitoneal injection for 9 consecutive weeks and were left either untreated (standard chow diet, 10 rats), or received a diet supplemented with SUL-150 as prophylaxis (prior to the 1st doxorubicin administration, 10 rats) or therapy (starting after the 6th doxorubicin administration, 10 rats). Sham control rats (8 rats) were administered with saline weekly via intraperitoneal injection for 9 consecutive weeks and received a standard diet. All rats were subjected to cardiac function assessment 12 weeks after the first doxorubicin administration. Cardiac tissue samples were homogenized in ddH2O using a TissueRuptor II (Qiagen, Hilden, Germany) followed by sonication at 20 kHz for 3×1 min (Sonopuls 2000, Bandelin, Berlin, Germany) and centrifugation at 14000 g to pellet insoluble proteins. […]

SMILES: Cc1c(C)c2c(c(C)c1O)CC[C@](C)(C(=O)N1CCNCC1)O2 [SUL-150, (R)-(6-hydroxy-2,5,7,8-tetramethylchroman-2-yl)(piperazin-1-yl)methanone]
- Doxorubicin-induced reduction of cardiac ATP content (normalized for ADP), FIG. 6A [1]: mitigated
- Cardiac radical scavenging activity, FIG. 5B [2]: remained unaltered
